The source of these data is patent US10813354B2, “Herbicidal pyridazinone compounds” (SYNGENTA PARTICIPATIONS AG, priority 2016, dated 2020).

Type in all cases: in vivo
Holding throughout (details): sprayed after 10 days cultivation, evaluated after 14 days

The subject of series [1] is AMARE (Amaranthus retroflexus). The experiment in a line: Post-emergence glasshouse herbicide test on AMARE. Here is the method: (§1) Seeds of a variety of test species HORVW (Hordeum vulgare—barley), ABUTH (Abutilon theophrasti), AMARE (Amaranthus retroflexus) and ECHCG (Echinochloa crus-galli) were sown in standard soil in pots. After cultivation for 10 days cultivation under controlled conditions in a glasshouse (at 24/16° C., day/night; 14 hours light; 65% humidity), the plants were sprayed with an aqueous spray solution derived from the formulation of the technical active ingredient in 0.6 ml acetone and 45 ml formulation solution containing 10.6% Emulsogen EL (Registry number 61791-12-6), 42.2% N-methyl pyrrolidone, 42.2% dipropylene glycol monomethyl ether (CAS RN 34590-94-8) and 0.2% X-77 (CAS RN 11097-66-8).
(§2) The test plants were then grown in a glasshouse under controlled conditions in a glasshouse (at 24/16° C., day/night; 14 hours light; 65% humidity) and watered twice daily. After 14 days, the test was evaluated (100=total damage to plant; 0=no damage to plant).

The subject of series [2] is ABUTH (Abutilon theophrasti). The experiment in a line: Post-emergence glasshouse herbicide test on ABUTH. The protocol: as §1, §2
Series [3] has as its system HORVW (Hordeum vulgare—barley). The experiment in a line: Post-emergence glasshouse herbicide test, crop damage on barley. The protocol: as §1, §2
The test system of series [4] is ECHCG (Echinochloa crus-galli). The experiment in a line: Post-emergence glasshouse herbicide test on ECHCG. Here is the method: as §1, §2

As for `COc1ccc(-n2nc(C)cc(C(=O)C3C(=O)C4CCC(C4)C3=O)c2=O)cc1OC` (centres unmarked) [Compound 1.1, 3-[2-(3,4-dimethoxyphenyl)-6-methyl-3-oxo-pyridazine-4-carbonyl]bicyclo[3.2.1]octane-2,4-dione], the “AMARE damage to plant (100=total damage to plant; 0=no damage to plant)” value in series [1] (Rate 125 g/ha) and in series [1] (Rate 250 g/ha) was 100 throughout. The “ABUTH damage to plant (100=total damage to plant; 0=no damage to plant)” value in series [2] (Rate 125 g/ha) and in series [2] (Rate 250 g/ha) was 100 in each case. Moreover, the “HORVW damage to plant (100=total damage to plant; 0=no damage to plant)” value in series [3] (Rate 125 g/ha) and in series [3] (Rate 250 g/ha) was 0 in each case. The “ECHCG damage to plant (100=total damage to plant; 0=no damage to plant)” value in series [4] (Rate 125 g/ha) and in series [4] (Rate 250 g/ha) was 100 in each case.

Take `COc1ccc(-n2nc(C)cc(C(=O)C3C(=O)CC(C)CC3=O)c2=O)cc1OC` (centres unmarked) [Compound 1.2]: the “AMARE damage to plant (100=total damage to plant; 0=no damage to plant)” value in series [1] (Rate 125 g/ha) and in series [1] (Rate 250 g/ha) was 100 each time. The “ABUTH damage to plant (100=total damage to plant; 0=no damage to plant)” value in series [2] (Rate 125 g/ha) and in series [2] (Rate 250 g/ha) was 100 each time. Also, the “HORVW damage to plant (100=total damage to plant; 0=no damage to plant)” value in series [3] (Rate 125 g/ha) and in series [3] (Rate 250 g/ha) was 0 each time. For the same compound, the “ECHCG damage to plant (100=total damage to plant; 0=no damage to plant)” value in series [4] (Rate 125 g/ha) and in series [4] (Rate 250 g/ha) was 100 in each case.

Regarding `COc1ccc(-n2nc(C)cc(C(=O)C3C(=O)CCCC3=O)c2=O)cc1OC` [Compound 1.3, 2-[2-(3,4-Dimethoxyphenyl)-6-methyl-3-oxo-pyridazine-4-carbonyl]cyclohexane-1,3-dione], the “AMARE damage to plant (100=total damage to plant; 0=no damage to plant)” value in series [1] (Rate 125 g/ha) and in series [1] (Rate 250 g/ha) was 100 throughout. Moreover, the “ABUTH damage to plant (100=total damage to plant; 0=no damage to plant)” value in series [2] (Rate 125 g/ha) and in series [2] (Rate 250 g/ha) was 100 in each case. The “HORVW damage to plant (100=total damage to plant; 0=no damage to plant)” value in series [3] (Rate 125 g/ha) and in series [3] (Rate 250 g/ha) was 0 in each case. In addition, the “ECHCG damage to plant (100=total damage to plant; 0=no damage to plant)” value in series [4] (Rate 125 g/ha) and in series [4] (Rate 250 g/ha) was 100 each time.

With `COc1ccc(-n2nc(C)cc(C(=O)C3C(=O)CC(C)(C)CC3=O)c2=O)cc1OC` [Compound 1.4], the “AMARE damage to plant (100=total damage to plant; 0=no damage to plant)” value in series [1] (Rate 125 g/ha) and in series [1] (Rate 250 g/ha) was 100 throughout. Further, the “ABUTH damage to plant (100=total damage to plant; 0=no damage to plant)” value in series [2] (Rate 125 g/ha) and in series [2] (Rate 250 g/ha) was 100 in each case. The “HORVW damage to plant (100=total damage to plant; 0=no damage to plant)” value in series [3] (Rate 125 g/ha) is listed as 0; in series [3] (Rate 250 g/ha) it was 10. For the same compound, the “ECHCG damage to plant (100=total damage to plant; 0=no damage to plant)” value in series [4] (Rate 125 g/ha) and in series [4] (Rate 250 g/ha) was 100 in each case.

For the compound `COc1ccc(-n2nc(C)cc(C(=O)C3C(=O)C(C)(C)C(=O)C(C)(C)C3=O)c2=O)cc1OC` [Compound 1.5], the “AMARE damage to plant (100=total damage to plant; 0=no damage to plant)” value in series [1] (Rate 125 g/ha) and in series [1] (Rate 250 g/ha) was 100 in each case. Besides, the “ABUTH damage to plant (100=total damage to plant; 0=no damage to plant)” value in series [2] (Rate 125 g/ha) and in series [2] (Rate 250 g/ha) was 100 throughout. In addition, the “HORVW damage to plant (100=total damage to plant; 0=no damage to plant)” value in series [3] (Rate 125 g/ha) and in series [3] (Rate 250 g/ha) was 0 in each case. The “ECHCG damage to plant (100=total damage to plant; 0=no damage to plant)” value in series [4] (Rate 125 g/ha) and in series [4] (Rate 250 g/ha) was 90 throughout.

Turning to `COc1ccc(-n2nc(C3CC3)cc(C(=O)C3C(=O)C4CCC(C4)C3=O)c2=O)cc1OC` (centres unmarked) [Compound 1.9], the “AMARE damage to plant (100=total damage to plant; 0=no damage to plant)” value came out at 90 in series [1] (Rate 125 g/ha) and 100 in series [1] (Rate 250 g/ha). The “ABUTH damage to plant (100=total damage to plant; 0=no damage to plant)” value in series [2] (Rate 125 g/ha) and in series [2] (Rate 250 g/ha) was 100 throughout. Besides, the “HORVW damage to plant (100=total damage to plant; 0=no damage to plant)” value turned out to be 0 in series [3] (Rate 125 g/ha) and 10 in series [3] (Rate 250 g/ha). Also, the “ECHCG damage to plant (100=total damage to plant; 0=no damage to plant)” value in series [4] (Rate 125 g/ha) and in series [4] (Rate 250 g/ha) was 100 in each case.

For `COc1ccc(-n2nc(C3CC3)cc(C(=O)C3C(=O)C(C)(C)C(=O)C(C)(C)C3=O)c2=O)cc1OC` [Compound 1.11, 6-[6-cyclopropyl-2-(3,4-dimethoxyphenyl)-3-oxo-pyridazine-4-carbonyl]-2,2,4,4-tetramethyl-cyclohexane-1,3,5-trione], the “AMARE damage to plant (100=total damage to plant; 0=no damage to plant)” value in series [1] (Rate 125 g/ha) and in series [1] (Rate 250 g/ha) was 100 each time. Also, the “ABUTH damage to plant (100=total damage to plant; 0=no damage to plant)” value in series [2] (Rate 125 g/ha) and in series [2] (Rate 250 g/ha) was 100 in each case. Besides, the “HORVW damage to plant (100=total damage to plant; 0=no damage to plant)” value in series [3] (Rate 125 g/ha) and in series [3] (Rate 250 g/ha) was 0 in each case. Also, the “ECHCG damage to plant (100=total damage to plant; 0=no damage to plant)” value in series [4] (Rate 125 g/ha) and in series [4] (Rate 250 g/ha) was 100 in each case.
